System: human CD8^+ T cells
Assay: Human CD3+ T cells from PBMC stimulated with aCD3/aCD28 beads in presence of UA
Type: cell-based
Parameters: frequency of human TSCM cells (CD45RA+CCR7hiCD62L+CD95+CD8+): dose or concentration left out as unconfirmed
Protocol: (FIG. 5L) UA induces PGC-1α expression in stimulated CD8+ cells. PGC-1α MFI at 48 h upon stimulation, as assessed by intracellular staining, is shown (n=3). One of two independent experiments are shown. Data are mean ± SD, statistical analysis was performed by two-sided t-test (p**<0.01). (FIG. 5M) Mitochondrial content of TIL CD8+ cells harvested from APTK-carrying mice, fed UA or control diet as depicted in FIG. 1J. Assessed by Mitotracker Red staining. Data are mean ± SD, *p < 0.05 by two-sided t-test. (FIG. 5N) Mitophagy and subsequent PGAM5 release drive PGC-1α upregulation. PGC-1α expression of CD8+ cells derived from Pink1^-/- KO mice upon 48 h stimulation in vitro in the presence of UA or DMSO control (n=4). Data are mean ± SD, statistical analysis was performed by two-sided t-test. Depicts one of two independent experiments. (FIG. 5O) Mitophagy and subsequent PGAM5 release drive PGC-1 α upregulation. PGC-1α expression of CD8+ cells derived from PGAM5^-^/- mice upon 48 h stimulation in vitro in the presence of UA or DMSO control (n=4). Data are mean ± SD, statistical analysis was performed by two-sided t-test. […] Cells were co-treated with DMSO, UA and an inhibitor of PGC-1α (PGC-1αi) as indicated (n=4). One of two independent experiments are shown. Data are mean ± SD, statistical analysis was performed by two-sided t-test (p**<0.01; ***p <0.001; n.s. not significant).(FIG. 5Q) Urolithin A induces TSCM in human CD8+ cells: Schematic overview. PBMC were isolated from healthy donors, prior to T cell purification and in vitro stimulation via aCD3/aCD28 stimulation beads at the presence of UA or DMSO control. (FIG. 5R) Quantification of human TSCM (n=4). Representative data of one out of five donors with the same result are shown. (FIG. 5S) Quantification of TMRM^loCD8+ human cells 48 h after activation in the presence of UA or DMSO control (n=4). (FIG. 5T) TCF1 expression in human CD8 cells as assessed by flow cytometry (n=4). All data are mean ± SD; statistical analysis was performed by two-sided t-test (*p < 0.05; p**<0.01; p****0.0001).
(FIG. 6A) Human PBMC were isolated from healthy donors, T cells were purified and stimulated ex-vivo with αCD3/αCD28 in the presence of UA ([…]) or DMSO control.
(FIG. 6B) Frequency of human TSCM 48 h after stimulation as shown in (A). Data are mean ± SD, n=4, ****p<0.0001 by one-way ANOVA followed by Tukey’s multiple comparison test.
(FIG. 6C) Quantification of human TMRM^loCD8^+ T cells 48 h after stimulation in the presence of UA or DMSO control .Data are mean ± SD, n=4,**p<0.01 by two-sided t test.
(FIG. 6D) TCF1 expression in human CD8+ T cells 48 h after stimulation in the presence of UA or DMSO control. Data are mean ± SD, n=4,*p<0.05by two-sided t test. […]

## O=c1oc2cc(O)ccc2c2ccc(O)cc12 [Urolithin A]
  CD95hiCD62L+ cells within the CD45RA+CCR7hiCD8+ compartment: dose-dependent increase
48 h
  TCF1 expression (intracellular staining): increased TCF1 expression
48 h, five out of five individual donors
  frequency of human TSCM cells (CD45RA+CCR7hiCD62L+CD95+CD8+): increased the frequency
After 48 hours
  mitochondrial membrane potential: decreased mitochondrial membrane potential

From patent US20230277669A1, “USES OF UROLITHINS” (Amazentis SA, priority 2022, published 2023)
